Assay results as given in patent publication US20240277658A1, “NLRP3 ACTIVATORS FOR USE IN THE TREATMENT OF INFECTIOUS DISEASES OR CANCER BY ACTIVATING NLRP3 INFLAMMASOME” (ALBERT-LUDWIGS-UNIVERSITÄT FREIBURG, priority 2020, published 2024).
Where “and” joins values, the source holds several entries; their conditions need not be identical. Equal values may be shown once. Read-outs that look alike come from different tables or passages of the source.

Tests used:
BMDCs = test: LDH release (lytic cell death, pyroptosis) from LPS-primed BMDCs; type: cell-based, mouse; conditions: for Average (% positive control): LDH release; for cytotoxicity at 50 µM / cytotoxicity at 25 µM / cytotoxicity at 100 µM / cytotoxicity at 75 µM: Mus musculus, BMDC
Summary of the method: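 LDH released into medium, detected colorimetrically, served as the pyroptosis read-out in triplicate. LPS-primed (50 ng ml^−1, 3 h) murine bone marrow-derived dendritic cells received test compounds, typically 50 μM, or nigericin (5 μM), R837 or CL097 (100 μM) for 3 hours.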

NLRP3 inflammasome = molecular target: T1, NLRP3 inflammasome (Mus musculus, UniProt Q8R4B8); test: IL-1β release from LPS-primed BMDCs (ELISA) as readout of NLRP3 inflammasome activation; type: cell-based
T1 construct: endogenous in cells; host or cells: primary mouse bone marrow-derived dendritic cells (BMDCs), LPS-primed
T1 sequence (Q8R4B8 whole entry): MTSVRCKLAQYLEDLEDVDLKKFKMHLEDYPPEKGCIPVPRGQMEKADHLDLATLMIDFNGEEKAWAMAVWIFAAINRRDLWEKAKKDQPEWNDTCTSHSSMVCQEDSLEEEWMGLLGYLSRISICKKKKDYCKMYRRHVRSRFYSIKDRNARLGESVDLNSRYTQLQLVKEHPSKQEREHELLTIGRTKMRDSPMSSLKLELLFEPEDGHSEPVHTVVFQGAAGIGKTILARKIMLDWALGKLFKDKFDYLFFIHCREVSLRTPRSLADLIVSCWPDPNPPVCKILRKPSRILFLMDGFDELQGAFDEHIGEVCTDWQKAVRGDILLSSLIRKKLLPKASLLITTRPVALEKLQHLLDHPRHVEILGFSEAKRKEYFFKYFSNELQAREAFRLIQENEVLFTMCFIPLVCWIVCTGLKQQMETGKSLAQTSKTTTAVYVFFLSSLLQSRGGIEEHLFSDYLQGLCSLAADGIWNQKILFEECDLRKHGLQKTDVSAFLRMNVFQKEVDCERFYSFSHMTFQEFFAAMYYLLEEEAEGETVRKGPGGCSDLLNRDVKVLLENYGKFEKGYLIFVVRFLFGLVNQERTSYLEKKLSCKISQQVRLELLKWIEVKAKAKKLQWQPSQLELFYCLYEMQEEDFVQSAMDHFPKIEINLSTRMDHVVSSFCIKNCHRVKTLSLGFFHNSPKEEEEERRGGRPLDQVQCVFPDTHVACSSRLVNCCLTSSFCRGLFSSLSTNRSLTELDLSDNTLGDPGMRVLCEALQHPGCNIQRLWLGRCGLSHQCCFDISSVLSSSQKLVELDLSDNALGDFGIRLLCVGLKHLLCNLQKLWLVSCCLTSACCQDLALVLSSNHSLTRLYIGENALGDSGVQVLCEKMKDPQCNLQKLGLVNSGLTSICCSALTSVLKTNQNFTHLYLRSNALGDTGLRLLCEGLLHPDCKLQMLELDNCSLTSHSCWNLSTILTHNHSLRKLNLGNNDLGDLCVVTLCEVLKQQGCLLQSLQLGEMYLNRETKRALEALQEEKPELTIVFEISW
Summary of the method: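 NLRP3 inflammasome activation was read out as IL-1β released into the supernatant, measured by ELISA. Murine BMDCs were primed with LPS (50 ng ml^−1, 3 hours), then incubated with compounds for 3 hours, with each condition run in three technical replicates. Nigericin at 5 μM acted as the positive control activator, and IL-1β release was also expressed as a percentage of that control.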

[1] = compound 50 μM, positive control nigericin 5 μM
[2] = compound 50 μM, LPS-primed BMDCs, read-out: Average LDH release (% of max.)
[3] = single replicates, compound 50 μM, LPS-primed BMDCs, read-out: LDH release (% of max.)
[4] = IL-1β release, compound 50 μM, positive control nigericin 5 μM
[5] = compound 50 μM, LPS-primed BMDCs
[6] = single replicates, compound 50 μM, LPS-primed BMDCs

Structure (SMILES) | Average (% positive control) (BMDCs; [1]) | cytotoxicity at 50 µM (BMDCs; [2]) [%] | cytotoxicity at 50 µM (BMDCs; [3]) [%] | Average (% positive control) (NLRP3 inflammasome; [4]) | Average IL-1β (NLRP3 inflammasome; [5]) [ng/mL] | IL-1β (NLRP3 inflammasome; [6]) | further results
COc1cccc(C)c1NC(=O)NC(c1nc(-c2cccnc2)no1)C(C)C (stereo not drawn) [L01.056, 1-(2-methoxy-6-methyl-phenyl)-3-{2-methyl-1-[3-(pyridin-3-yl)-1,2,4-oxadiazol-5-yl]propyl}-urea] | 13.256 | 9.7 | 9.34 | 0.905 | 0.065 | 0.060 ng/mL and 0.073 ng/mL and 0.062 ng/mL | 
O=C(Nc1ccc2ncccc2c1)NC1CCCCC1 [EN11-02, 1-cyclohexyl-3-(quin-olin-6-yl)urea] |  |  |  |  |  |  | Average (% positive control) (BMDCs; 25 μM, positive control EN22 25 μM): 20.897 % positive control; Average (% positive control) (BMDCs; 50 μM, positive control EN22 25 μM): 21.105 % positive control; Average (% positive control) (BMDCs; 100 μM, positive control EN22 25 μM): 19.808 % positive control; cytotoxicity at 25 µM (BMDCs; 25 μM, EN11 series table, read-out: Average LDH release (% of max.)): 10.6%; cytotoxicity at 25 µM (BMDCs; 25 μM, individual replicate values, EN11 series table, read-out: LDH release (% of max.)): 10.8%; cytotoxicity at 50 µM (BMDCs; 50 μM, EN11 series table, read-out: Average LDH release (% of max.)): 10.7%; cytotoxicity at 50 µM (BMDCs; 50 μM, individual replicate values, EN11 series table, read-out: LDH release (% of max.)): 10.4%; cytotoxicity at 100 µM (BMDCs; 100 μM, individual replicate values, read-out: LDH release (% of max.)): 10.1%; cytotoxicity at 100 µM (BMDCs; 100 μM, read-out: Average LDH release (% of max.)): 10.1%; Average IL-1β (NLRP3 inflammasome; 25 μM, EN11 series table): 0.015 ng/mL; IL-1β (NLRP3 inflammasome; 25 μM, individual replicate values, EN11 series table): 0.015 ng/mL; Average IL-1β (NLRP3 inflammasome; 50 μM, EN11 series table): 0.042 ng/mL; IL-1β (NLRP3 inflammasome; 50 μM, individual replicate values, EN11 series table): 0.040 ng/mL and 0.050 ng/mL and 0.036 ng/mL; Average IL-1β (NLRP3 inflammasome; 100 μM): 0.050 ng/mL; IL-1β (NLRP3 inflammasome; 100 μM, individual replicate values): 0.053 ng/mL and 0.052 ng/mL and 0.046 ng/mL; Average (% positive control) (NLRP3 inflammasome; IL-1β, 25 μM, positive control EN22 25 μM): 1.019 % positive control; Average (% positive control) (NLRP3 inflammasome; IL-1β, 50 μM, positive control EN22 25 μM): 2.832 % positive control; Average (% positive control) (NLRP3 inflammasome; IL-1β, 100 μM, positive control EN22 25 μM): 3.424 % positive control
CN(C)Cc1ccc(NC(=O)Nc2ccccc2)cc1 [L01.121, 3-{4-[(dimethylamino)-methyl]phenyl}-1-phen-ylurea] | 11.907 | 8.71 | 7.8 | 0.906 | 0.065 | 0.066 ng/mL and 0.068 ng/mL and 0.060 ng/mL | 
CC(C)C(NC(=O)Nc1ccc(Cl)cc1)c1nc(-c2ccccc2)no1 (stereo not drawn) [L01.097, 1-(4-chlorophenyl)-3-[2-methyl-1-(3-phenyl-1,2,4-oxadiazol-5-yl)-propyl]urea] | 51.271 | 37.5 | 39.5 | 1.765 | 0.126 | 0.121 ng/mL and 0.143 ng/mL and 0.116 ng/mL | 
COCc1cc(F)ccc1NC(=O)NC(c1nc(-c2cccnc2)no1)C(C)C (stereo not drawn) [L01.054, 1-[4-fluoro-2-(methoxy-methyl)phenyl]-3-{2-methyl-1-[3-(pyridin-3-yl)-1,2,4-oxadiazol-5-yl]propyl}urea] | 11.431 | 8.36 | 7.79 | 0.947 | 0.068 | 0.067 ng/mL and 0.062 ng/mL and 0.074 ng/mL | 
Cc1cc(NC(=O)Nc2ccccc2)ccc1N1CCCC1 [L01.025, 3-[3-methyl-4-(pyrrol-idin-1-yl)phenyl]-1-phenylurea] | 19.631 | 14.4 | 15 | 5.130 | 0.368 | 0.333 ng/mL and 0.280 ng/mL and 0.490 ng/mL | 
Cc1ccc(-c2noc(CN3C(=O)CN(c4ccccc4)C3=O)n2)cc1 [L01.127, 3-{[3-(4-methylphenyl)-1,2,4-oxadiazol-5-yl]-methyl}-1-phenylimid-azolidine-2,4-dione] | 14.301 | 10.5 | 11 | 6.538 | 0.469 | 0.490 ng/mL and 0.475 ng/mL and 0.441 ng/mL | 
CC(C)c1ccc(NC(=O)Nc2ccccc2)cc1 [L01.047, 1-phenyl-3-[4-(propan-2-yl)phenyl]urea] | 16.514 | 12.1 | 12.1 | 7.117 | 0.510 | 0.505 ng/mL and 0.513 ng/mL and 0.512 ng/mL | 
O=C1CN(c2ccccc2)C(=O)N1Cc1nc(-c2cccs2)no1 [L01.089, 1-phenyl-3-{[3-(thio-phen-2-yl)-1,2,4-oxadiazol-5-yl]meth-yl}imidazolidine-2,4-dione] | 10.402 | 7.61 | 8.67 | 4.526 | 0.324 | 0.313 ng/mL and 0.316 ng/mL and 0.344 ng/mL | 
N#CCOc1ccc(NC(=O)Nc2ccccc2)cc1 [L01.002, 1-[4-(cyanomethoxy)-phenyl]-3-phenylurea] | 13.662 | 9.99 | 8.07 | 2.590 | 0.186 | 0.144 ng/mL and 0.249 ng/mL and 0.164 ng/mL | 
O=C(Nc1ccccc1)Nc1ccc(NC(=O)C2CCOC2)cc1 (stereo not drawn) [L01.101, N-{4-[(phenylcarbamo-yl)amino]phenyl}oxo-lane-3-carboxamide] | 27.161 | 19.9 | 19.4 | 15.216 | 1.091 | 1.160 ng/mL and 1.071 ng/mL and 1.041 ng/mL | 
O=C(Nc1cc(Cl)cc(Cl)c1)Nc1ccc([N+](=O)[O-])cc1Cl [AH1, 1-(2-chloro-4-nitrophenyl)-3-(3,5-dichlorophenyl) urea] |  |  |  |  |  |  | Average (% positive control) (BMDCs; 25 μM, positive control EN22 10 μM): 53.499 % positive control; Average (% positive control) (BMDCs; 50 μM, positive control EN22 10 μM): 74.390 % positive control; Average (% positive control) (BMDCs; 75 μM, positive control EN22 10 μM): 78.340 % positive control; cytotoxicity at 25 µM (BMDCs; 25 μM, AH series table, read-out: Average LDH release (% of max.)): 41.1%; cytotoxicity at 25 µM (BMDCs; 25 μM, individual replicate values, AH series table, read-out: LDH release (% of max.)): 42.1%; cytotoxicity at 50 µM (BMDCs; 50 μM, AH series table, read-out: Average LDH release (% of max.)): 57.1%; cytotoxicity at 50 µM (BMDCs; 50 μM, individual replicate values, AH series table, read-out: LDH release (% of max.)): 55.7%; cytotoxicity at 75 µM (BMDCs; 75 μM, individual replicate values, read-out: LDH release (% of max.)): 60.7%; cytotoxicity at 75 µM (BMDCs; 75 μM, read-out: Average LDH release (% of max.)): 60.2%; Average IL-1β (NLRP3 inflammasome; 25 μM, AH series table): 1.177 ng/mL; IL-1β (NLRP3 inflammasome; 25 μM, individual replicate values, AH series table): 1.140 ng/mL and 1.156 ng/mL and 1.234 ng/mL; Average IL-1β (NLRP3 inflammasome; 50 μM, AH series table): 1.578 ng/mL; IL-1β (NLRP3 inflammasome; 50 μM, individual replicate values, AH series table): 1.533 ng/mL and 1.609 ng/mL and 1.592 ng/mL; Average IL-1β (NLRP3 inflammasome; 75 μM, AH series table): 1.533 ng/mL; IL-1β (NLRP3 inflammasome; 75 μM, individual replicate values, AH series table): 1.619 ng/mL and 1.382 ng/mL and 1.598 ng/mL; Average (% positive control) (NLRP3 inflammasome; IL-1β, 25 μM, positive control EN22 10 μM): 11.766 % positive control; Average (% positive control) (NLRP3 inflammasome; IL-1β, 50 μM, positive control EN22 10 μM): 15.776 % positive control; Average (% positive control) (NLRP3 inflammasome; IL-1β, 75 μM, positive control EN22 10 μM): 15.328 % positive control
